# “Also recorded” adds a separate entry of the source. Read-outs that look alike come from different tables or passages of the source.
# How the values were obtained:
# Format in all cases: physicochemical
# [1] = Kinetic solubility in FaSSIF and FeSSIF; details: for solubility kinetic at 15 min / solubility kinetic at 30 min / solubility kinetic at 1 h: thermodynamic from solid, read-out: Kinetic solubility (concentration of saturated solution); for Kinetic solubility (concentration of saturated solution): listed as Prior art Form I
# Experimental: High Performance Liquid Chromatography (HPLC) data in the present disclosure were collected from an Agilent 1260 with Diode Array Detector (DAD).
# The HPLC method parameters for solubility test and dissolution tests in the present disclosure are as follows: • 1. Column: Waters XBridge C18 150×4.6 mm, 5 μm • 2. Mobile Phase: A: 0.1% TFA in H2O • B: 0.1% TFA in Acetonitrile
# • 3. Flow rate: 1.0 mL/min • 4. Injection Volume: 10 μL • 5. Detection wavelength: 230 nm • 6. Column Temperature: 40° C. • 7. Diluent: Acetonitrile: H2O (v:v)=50:50
# Simulated intestinal fluids, such as FaSSIF (fasted state simulated intestinal fluids) and FeSSIF (fed state simulated intestinal fluids) are biorelevant media. These media can better reflect the drug release affected by gastrointestinal environment. Solubility in such media is close to in vivo solubility.
# 20 mg of Form A in the present disclosure and 20 mg of prior art Form I were suspended in 1.5 mL of FaSSIF and 1.5 mL of FeSSIF to get saturated solutions. After equilibrium for 15 minutes, 30 minutes and 1 hour, concentrations of the saturated solutions (mg/mL) were measured by HPLC.
# [2] = Stability of Form A drug substance (XRPD and HPLC); details: for Change in solid form: XRPD; for Change in purity %: HPLC
# Experimental: Four samples of Form A in the present disclosure was stored under different conditions of 25° C./60% RH in open and closed dishes for 3 months, 40° C./75% RH in closed dish for 3 months and 60° C./75% RH in closed dish for 1 week. Crystalline form and chemical impurity were checked by XRPD and HPLC, respectively.
# [3] = Crystalline form after formulation process (XRPD of capsule); details: Form A in capsule
# Experimental: The preparation process is described in Table 8.
# The crystalline form of Form A in capsule was tested by XRPD. […] The XRPD pattern is substantially as depicted in FIG. 10.
# [4] = Adhesiveness (material sticking to the punch); details: for Cumulative amount (mg) sticking to the punch / Maximum amount (mg) sticking to the punch: 30 mg, φ8 mm round tooling, 10 kN, 30 s, repeated compression
# Experimental: 30 mg of Form A and Form I in prior art were added into the dies of φ8 mm round tooling, compressed at 10 kN and held for 30 s. The punch was weighed and amount of material sticking to the punch was calculated. The compression was repeated several times to record the cumulative amount, maximum amount and average amount of material sticking to the punch during compression process.
# [5] = Hygroscopicity (Chinese Pharmacopoeia 2015, general notice 9103); details: for Percentage gain (weight gain, hygroscopicity): 25±1° C., relative humidity 80%±2%, 24 hours
# Experimental: The hygroscopicity experiment was conducted according to general notice 9103 drug hygroscopicity test guidelines in 2015 edition of Chinese Pharmacopoeia. The methods are listed as follows: • 1. A dry weighing bottle with a stopper (outer diameter is 50 mm and the height is 15 mm) was placed in a suitable desiccator at constant temperature of 25±1° C. (saturated solution of ammonium chloride or ammonium sulfate was placed in the lower compartment) or the a man-made climate chamber (the temperature is set as 25°±C. 1° C. and the relative humidity is 80%±2%) the day before the test. The weight is accurately weighed (m1). • 2. A suitable amount of the sample was spread into the weighing bottle. The thickness of the sample is generally about 1 mm, and the weight is accurately weighed (m2). • 3. The weighing bottle was kept open and placed under the same constant temperature and humidity mentioned above for 24 hours as well as the stopper. • 4. T The stopper was put on the weighing bottle, and then the weighing bottle with stopper was accurately weighed (m3).
# The hygroscopicity of Form A in the present disclosure and Form I in prior art was tested.
# [6] = Compressibility (tensile strength); details: Φ6 mm round tooling, 80 mg, 10 kN; for Tensile strength (MPa): T=2H/πDL; for Diameter (mm) / Thickness (mm): after 24 h
# Experimental: A manual tablet press was used for compression. A certain amount of Form A and prior art Form I were added into the dies of round tooling (Ensuring the isotropy of the tablet), compressed at suitable pressure, and then stored at room temperature for 24 h until complete elastic recovery. Hardness (H) was tested with Intelligent Tablet Hardness Tester. Diameter (D) and thickness (L) were tested with caliper. Tensile strength of the powder was calculated with the following formula: T=2H/πDL. Under a certain force, the greater the tensile strength, the better the compressibility.
# [7] = Mechanical stability (tableting at 15 kN, XRPD); details: compressed at 15 kN, held 1 minute
# Experimental: About 0.1 g of Form A was added into a die, compressed at 15 kN, and held for 1 minute. And then the pressure was released and the sample in the die was taken out for XRPD test. […] The XRPD pattern is substantially as depicted in FIG. 9.
# [8] = Flowability (compressibility index / Carr Index); details: for Carr Index: c=(ρf−ρ0)/ρf; for Flowability: criteria of ICH Q4B Annex 13
# Experimental: Compressibility index or Carr Index is usually utilized to evaluate the flowability of powder and granules during the drug product process. Compressibility index test method is as follows: a certain amount of powder was added into a measuring cylinder and bulk volume was recorded. Then the powder was tapped to make it in the tightest state and the tapped volume was recorded. The bulk density (ρ0), tapped density (ρf) were calculated and compressibility index was calculated according to c=(ρf−ρ0)/ρf.
# [9] = 25° C./60% RH in open dish, 3 months
# [10] = 40° C./75% RH in closed dish, 3 months
# [11] = 60° C./75% RH in closed dish, 1 week
smiles,measurement,setting,value
"COc1cc2c(cc1OC)[C@H]1C[C@@H](OC(=O)[C@@H](N)C(C)C)[C@H](CC(C)C)CN1CC2 [Form A, (S)-2-amino-3-methyl-butyric acid (2R,3R,11bR)-3-isobutyl-9,10-dimethoxy-1,3,4,6,7,11b-hexahydro-2H-pyrido[2,1-a]isoquinolin-2-yl ester]",solubility kinetic at 15 min,"[1]; FaSSIF, FaSSIF, 15 minutes",31.4 mg/mL
same,solubility kinetic at 30 min,"[1]; FaSSIF, FaSSIF, 30 minutes",31.3 mg/mL
same,solubility kinetic at 1 h,"[1]; FaSSIF, FaSSIF, 1 hour",31.8 mg/mL
same,Solubility of Form A relative to prior art Form I,[1]; FeSSIF,1.23 times
same,solubility kinetic at 15 min,"[1]; FeSSIF, FeSSIF, 15 minutes",41.9 mg/mL
same,solubility kinetic at 30 min,"[1]; FeSSIF, FeSSIF, 30 minutes",41.7 mg/mL
same,solubility kinetic at 1 h,"[1]; FeSSIF, FeSSIF, 1 hour",41.3 mg/mL
same,Time physically and chemically stable,[2]; 25° C./60% RH in closed dish,at least 3 months
same,Change in solid form,"[2]; 25° C./60% RH in closed dish, 3 months",doesn't change; also recorded: No form change
same,Time physically and chemically stable,[2]; 25° C./60% RH in open dish,at least 3 months
same,Change in purity %,[2]; [9],0.03%
same,Change in solid form,[2]; [9],doesn't change; also recorded: No form change
same,Time physically and chemically stable,[2]; 40° C./75% RH in closed dish,at least 3 months
same,Change in purity %,[2]; [10],0.09%
same,Change in solid form,[2]; [10],doesn't change; also recorded: No form change
same,Time stable,[2]; 60° C./75% RH in closed dish,at least 1 week
same,Change in purity %,[2]; [11],0.08%
same,Change in solid form,[2]; [11],doesn't change; also recorded: No form change
same,Form change of Form A after formulation process,[3],no form change was observed; also recorded: doesn't change
same,Cumulative amount (mg) sticking to the punch,[4],0.06 mg
same,Maximum amount (mg) sticking to the punch,[4],0.17 mg
same,Hygroscopicity relative to prior art form,[5]; Chinese Pharmacopoeia hygroscopicity test,3/5
same,Tensile strength (MPa),[6],1.36 MPa
same,Diameter (mm),[6],6.11 mm
same,Thickness (mm),[6],2.33 mm
same,Form change after tableting,[7],doesn't change; also recorded: no form change is observed
same,Bulk density,[8],0.179 g/mL
same,Tap density,[8],0.209 g/mL
same,Carr Index,[8],14%
same,Flowability,[8],Good (11-15)
"COc1cc2c(cc1OC)[C@H]1C[C@@H](OC(=O)[C@@H](N)C(C)C)[C@H](CC(C)C)CN1CC2 [Form I, (S)-2-amino-3-methyl-butyric acid (2R,3R,11bR)-3-isobutyl-9,10-dimethoxy-1,3,4,6,7,11b-hexahydro-2H-pyrido[2,1-a]isoquinolin-2-yl ester, reference compound]",Kinetic solubility (concentration of saturated solution),"[1]; FaSSIF, 15 minutes",30.637 mg/mL
same,Kinetic solubility (concentration of saturated solution),"[1]; FaSSIF, 30 minutes",30.189 mg/mL
same,Kinetic solubility (concentration of saturated solution),"[1]; FaSSIF, 1 hour",31.010 mg/mL
same,Kinetic solubility (concentration of saturated solution),"[1]; FeSSIF, 15 minutes",34.054 mg/mL
same,Kinetic solubility (concentration of saturated solution),"[1]; FeSSIF, 30 minutes",34.628 mg/mL
same,Kinetic solubility (concentration of saturated solution),"[1]; FeSSIF, 1 hour",35.012 mg/mL
same,"Maximum amount sticking to the punch, Form I relative to Form A",[4],more than 3 times
same,Cumulative amount (mg) sticking to the punch,[4],0.21 mg
same,Maximum amount (mg) sticking to the punch,[4],7.58 mg
same,"Percentage gain (weight gain, hygroscopicity)",[5]; listed as Form I in prior art,0.40%
same,"Percentage gain (weight gain, hygroscopicity)",[5]; listed as prior art Form I,0.40%
same,Tensile strength (MPa),[6],0.86 MPa
same,Diameter (mm),[6],6.04 mm
same,Thickness (mm),[6],2.30 mm
same,Bulk density,[8],0.144 g/mL
same,Tap density,[8],0.174 g/mL
same,Carr Index,[8],17%
same,Flowability,[8],Fair (16-20)
